ChEMBL document CHEMBL2176956, “Application of structure-based drug design and parallel chemistry to identify selective, brain penetrant, in vivo active phosphodiesterase 9A inhibitors” (J Med Chem, 2012)

Assay: Clearance in human liver microsomes
Assay type: ADME, Microsome
Conditions: read-out: CLH

CLint scaled: 200 mL/min/kg
Compound: O=c1[nH]c(Cc2ccccc2)nc2c1cnn2C1CCCC1
